Data reported in ChEMBL document CHEMBL4706648, “Antitubercular 2-Pyrazolylpyrimidinones: Structure-Activity Relationship and Mode-of-Action Studies” (J Med Chem, 2021).
Converted amounts (≈) assume the structure as drawn. The source made the active and inactive calls. The calls are words filed in the database; no cut-off is given here.

How the values were obtained:
[1] = AUC (0 to infinity) in C57/BL6 mouse blood at 2 mg/kg, iv administered as bolus dose measured upto 24 hrs by LC-MS/MS analysis; type: ADME, organism-based; set-up: route intravenous, dose 2 mg/kg, time <=24; settings: C57/BL6, mouse, blood
[2] = Protein binding in human plasma assessed as unbound fraction at 5 uM incubated for 1 hr at 37 degreeC and measured after 4 hrs by ultracentrifugation based LC-MS/MS analysis; type: ADME, cell-free; settings: 5 h
[3] = tested on: Mycobacterium tuberculosis; type: functional; settings: H37Rv, 168 h, time 7 day
[4] = AUC (0 to infinity) in C57/BL6 mouse blood at 20 mg/kg, po measured upto 24 hrs by LC-MS/MS analysis; type: ADME, organism-based; set-up: route oral, dose 20 mg/kg, time <=24
[5] = Aqueous solubility of compound at pH 7.4; type: physicochemical; settings: buffer
[6] = tested on: Mycobacterium tuberculosis; test: Bactericidal activity against Mycobacterium tuberculosis H37Rv assessed as reduction in CFU grown under middlebrook 7H9/OADC-Glycerol-Tween80 medium at 1 to 2 times MIC incubated for 7 days; type: functional; settings: time 7 day
[7] = Metabolic stability in mouse liver microsomes assessed as parent compound remaining after 30 mins; type: ADME, Microsome; settings: 0.5 h
[8] = Apparent half life in C57/BL6 mouse blood at 20 mg/kg, po measured upto 24 hrs by LC-MS/MS analysis; type: ADME, organism-based; settings: C57/BL6, mouse, blood, read-out: t1/2(app) (converted)
[9] = Cmax in C57/BL6 mouse blood at 2 mg/kg, iv administered as bolus dose measured upto 24 hrs by LC-MS/MS analysis; type: ADME, organism-based; set-up: route intravenous, dose 2 mg/kg, time <=24; settings: C57/BL6, mouse, blood
[10] = tested on: Mycobacterium tuberculosis; test: Antimycobacterial activity against mmpL3 gene silenced Mycobacterium tuberculosis H37Rv assessed as inhibition of bacterial growth grown under middlebrook 7H9 medium incubated for 7 days by alamar blue broth microdilution method; type: functional, organism-based; settings: time 7.0 day
[11] = Total blood clearance in C57/BL6 mouse blood at 2 mg/kg, iv administered as bolus dose measured upto 24 hrs by LC-MS/MS analysis; type: ADME, organism-based
[12] = tested on: Mycobacterium tuberculosis; test: Antimycobacterial activity against wild-type Mycobacterium tuberculosis H37Rv assessed as inhibition of bacterial growth grown under middlebrook 7H9 medium incubated for 7 days by alamar blue broth microdilution method; type: functional; settings: 168 h, time 7 day
[13] = Metabolic stability in human liver microsomes assessed as parent compound remaining after 30 mins; type: ADME, Microsome; settings: 0.5 h
[14] = Volume of distribution during elimination phase in C57/BL6 mouse blood at 2 mg/kg, iv administered as bolus dose measured upto 24 hrs by LC-MS/MS analysis; type: ADME, organism-based; settings: C57/BL6, mouse, blood, read-out: Vd
CHO = test: Cytotoxicity against CHO cells assessed as reduction in cell viability by MTT assay; type: cell-based; settings: Cricetulus griseus
[15] = Apparent half life in C57/BL6 mouse blood at 2 mg/kg, iv administered as bolus dose measured upto 24 hrs by LC-MS/MS analysis; type: ADME, organism-based; settings: C57/BL6, mouse, blood, read-out: t1/2(app) (converted)
[16] = Kinetic solubility of compound at 200 uM at pH 7.4 measured after 20 hrs by HPLC-DAD analysis; type: physicochemical; settings: buffer, pH 7.4, 20 h
[17] = Tmax in C57/BL6 mouse blood at 20 mg/kg, po measured upto 24 hrs by LC-MS/MS analysis; type: ADME, organism-based; settings: C57/BL6, mouse, blood, read-out: Tmax
[18] = Metabolic stability in rat liver microsomes assessed as parent compound remaining after 30 mins; type: ADME, Microsome; settings: 0.5 h
[19] = Cmax in C57/BL6 mouse blood at 20 mg/kg, po measured upto 24 hrs by LC-MS/MS analysis; type: ADME, organism-based; set-up: route oral, dose 20 mg/kg, time <=24; settings: C57/BL6, mouse, blood
[20] = Intrinsic clearance in C57/BL6 mouse blood at 2 mg/kg, iv administered as bolus dose measured upto 24 hrs by LC-MS/MS analysis; type: ADME, organism-based; settings: in vivo
[21] = Oral bioavailability in C57/BL6 mouse blood at 20 mg/kg measured upto 24 hrs by LC-MS/MS analysis; type: ADME, organism-based; settings: C57/BL6, mouse, blood
[22] = tested on: Mycobacterium tuberculosis; type: functional; settings: H37Rv, 168 h, time 7 day; remark: listed apart in the source
[23] = Metabolic stability in rat liver microsomes assessed as parent compound remaining at 1 uM in presence of NADPH by LC-MS/MS analysis; type: ADME, Microsome
HepG2 [24] = test: Antiproliferative activity against human HepG2 cells assessed as reduction in cell viability grown under glucose medium by MTT assay; type: functional, cell-based
[25] = Lipophilicity, log D of the compound in n-octanol and phosphate buffer at pH 7.4 measured after 3 hrs by HPLC-DAD analysis; type: physicochemical
[26] = tested on: Mycobacterium tuberculosis; type: functional; settings: H37Rv, 168 h, time 7 day; remark: listed apart in the source
[27] = Solubility of compound at 3 uM; type: physicochemical
[28] = molecular target: Voltage-gated inwardly rectifying potassium channel KCNH2 (Homo sapiens, UniProt Q12809); test: Inhibition of human ERG
[29] = Metabolic stability in mouse liver microsomes assessed as parent compound remaining at 1 uM in presence of NADPH by LC-MS/MS analysis; type: ADME, Microsome
[30] = tested on: Mycobacterium tuberculosis; type: functional; settings: H37Rv, 168 h, time 7 day; remark: listed apart in the source
HepG2 [31] = test: Antiproliferative activity against human HepG2 cells assessed as reduction in cell viability grown under galactose medium by MTT assay; type: functional, cell-based
[32] = Metabolic stability in human liver microsomes assessed as parent compound remaining at 1 uM in presence of NADPH by LC-MS/MS analysis; type: ADME, Microsome
[33] = tested on: Mycobacterium tuberculosis; type: functional; settings: H37Rv, 168 h, time 7 day; remark: listed apart in the source
[34] = tested on: Mycobacterium tuberculosis; type: functional; settings: H37Rv, 168 h, time 7 day; remark: listed apart in the source

Sequence of Voltage-gated inwardly rectifying potassium channel KCNH2 (Q12809 whole entry): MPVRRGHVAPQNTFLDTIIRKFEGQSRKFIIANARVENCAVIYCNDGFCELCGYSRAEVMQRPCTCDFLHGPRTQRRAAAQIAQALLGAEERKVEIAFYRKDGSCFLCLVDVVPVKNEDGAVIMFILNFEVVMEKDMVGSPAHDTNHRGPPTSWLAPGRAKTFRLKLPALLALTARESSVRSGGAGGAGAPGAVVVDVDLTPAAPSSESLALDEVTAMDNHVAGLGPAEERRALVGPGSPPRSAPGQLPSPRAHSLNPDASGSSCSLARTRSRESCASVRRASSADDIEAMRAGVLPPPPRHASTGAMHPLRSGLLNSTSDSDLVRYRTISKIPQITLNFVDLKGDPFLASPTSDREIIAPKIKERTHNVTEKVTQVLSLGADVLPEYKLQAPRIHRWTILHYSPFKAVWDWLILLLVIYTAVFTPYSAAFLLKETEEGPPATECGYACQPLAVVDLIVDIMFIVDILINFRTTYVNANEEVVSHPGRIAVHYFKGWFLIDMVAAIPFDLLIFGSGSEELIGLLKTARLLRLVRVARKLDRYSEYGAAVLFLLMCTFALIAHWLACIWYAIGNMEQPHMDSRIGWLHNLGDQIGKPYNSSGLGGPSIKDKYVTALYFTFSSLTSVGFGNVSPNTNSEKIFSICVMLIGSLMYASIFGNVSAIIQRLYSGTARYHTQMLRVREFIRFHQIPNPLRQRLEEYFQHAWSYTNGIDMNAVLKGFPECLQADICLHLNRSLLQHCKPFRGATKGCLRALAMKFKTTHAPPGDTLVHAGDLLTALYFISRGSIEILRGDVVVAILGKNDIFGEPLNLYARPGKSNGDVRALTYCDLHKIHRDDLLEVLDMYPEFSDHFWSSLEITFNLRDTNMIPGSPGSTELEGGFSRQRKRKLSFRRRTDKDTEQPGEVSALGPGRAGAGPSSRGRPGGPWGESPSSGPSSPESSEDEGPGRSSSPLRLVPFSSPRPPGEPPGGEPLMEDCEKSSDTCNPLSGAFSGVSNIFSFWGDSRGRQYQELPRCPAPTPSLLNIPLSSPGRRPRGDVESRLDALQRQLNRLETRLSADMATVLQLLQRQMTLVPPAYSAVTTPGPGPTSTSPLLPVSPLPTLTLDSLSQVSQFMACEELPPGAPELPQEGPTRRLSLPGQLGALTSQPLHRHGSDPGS

With `Cc1cc(Nc2ccc(F)cc2)n(-c2nc(C(F)(F)F)cc(=O)[nH]2)n1` the AUC(0-inf) [1] was 1.52 µM·h, the Fu [2] was 0.013 and the MIC [3] was 1.56 µM (≈ 0.551 µg/mL). The AUC(0-inf) [4] was 5.22 µM·h, the solubility [5] was 15 µM (≈ 5.3 µg/mL) and the Activity [6] was 2 log10CFU. It also gave a Stabilty [7] of 96%, a half-life [8] of 4.4 h and a Cmax [9] of 2400 nM. The Activity [10] was “Active”, the clearance [11] was 80.9 mL/min/kg and the MIC [12] was 1.2 µM (≈ 0.424 µg/mL). It also gave a Stabilty [13] of 98%, a Vd [14] of 37.4 L/kg and an IC50 (CHO) of 20 µM. For the same compound, the half-life [15] was 5.6 h, the Kinetic_solubility [16] was 15 µM and the Tmax [17] was 0.5 h. For the same compound, the Stabilty [18] was 98%, the Cmax [19] was 2900 nM and the CL [20] was > 4000 mL/min/kg. The bioavailability [21] was 33%.
With `Cc1cc(C)n(-c2nc(O)cc(-c3ccccc3)n2)n1` the MIC [22] was 0.6 µM (≈ 0.16 µg/mL), the Stabilty [23] was 69% and the MIC [3] was 1.5 µM (≈ 0.399 µg/mL). For the same compound, the IC50 (HepG2 [24]) was 4 µM, the solubility [5] was 10 µM (≈ 2.66 µg/mL) and the logD at 3 h [25] was 2.5. For the same compound, the Activity [10] was “Active”, the MIC [26] was 1.5 µM (≈ 0.399 µg/mL) and the MIC [12] was 1.7 µM (≈ 0.453 µg/mL). The solubility at 3 µM [27] was 180 µM (≈ 47.9 µg/mL), the IC50 [28] was > 30 µM and the Stabilty [29] was 22%. The MIC [30] was 0.02 µM (≈ 0.00533 µg/mL), the IC50 (HepG2 [31]) was 4 µM and the Stabilty [32] was 98%. For the same compound, the IC50 (CHO) was 8 µM, the MIC [33] was 0.4 µM (≈ 0.107 µg/mL) and the MIC [34] was 0.3 µM (≈ 0.0799 µg/mL).
